Laboratory results published in ChEMBL document CHEMBL3507680, “University of Dundee, Gates Library screen for HepG2 cell viability”.

Test: Human HepG2 cell viability assay in 384 well format
Assay type: toxicity, cell-based
Set-up: dose 125 nL, time 70.5 hour; concentration not given beside the values
Conditions: HepG2 cells, read-out: Inhibition

Structure (SMILES) | cytotoxicity at 70.5 h
CN(Cc1cccc(C(F)(F)F)c1)Cc1nc(-c2cnccn2)no1 | -8.53%
CCOc1ccc(C(C)Nc2ncnc3c2CCNC3)cc1OCC (configuration not stated) | -12%
Cn1cc(-c2ccnc(NCC3CCCCO3)n2)cn1 (configuration not stated) | 9.61%
COc1ccc(-c2noc(C3CC(C(C)C)=NO3)n2)cc1 (configuration not stated) | 1.77%
C=C(C)COc1ccccc1CNC(CC)c1ccnn1C (configuration not stated) | -5.65%
Cc1occc1C(=O)N1CCC2(CCCN(CC3CC3)C2=O)C1 (configuration not stated) | -15%
Cc1cc(N2CCC(NC(C)Cc3ccsc3)CC2)nc(N)n1 (configuration not stated) | 32.9%
O=C(NCCC1CCCCO1)c1cc(COc2cncc(Cl)c2)on1 (configuration not stated) | 14.4%
CC(=O)NC(C(=O)N1CCn2cncc2C1)C(C)C (configuration not stated) | -2.16%
Cc1nonc1CN(C)Cc1nc(-c2cccc(F)c2F)oc1C | -7.8%
O=C(O)c1ccnc(-c2ccnc(COc3ccccc3Cl)n2)c1 | -7.03%
COc1ccc(OC)c(-n2cnnc2CN)c1 | -2.21%
CCn1nccc1S(=O)(=O)N1CCC2(CCCN(C(C)C)C2=O)C1 (configuration not stated) | -14.6%
COc1ccc(CNC(=O)N2CCN(C)[C@@H]3CS(=O)(=O)C[C@@H]32)cc1 | -1.34%
CCO[C@H]1COC[C@@H]1NC(=O)c1c[nH]nc1C1CCCCC1 | 19.5%
N#Cc1cccc(NC2CC(=O)N(Cc3cccc(F)c3)C2)n1 (configuration not stated) | -8.43%
Cc1cccc(-c2nccn2-c2cccc(CC(=O)O)c2)n1 | -9.85%
CNc1nc2c(c(C(=O)N3CCCC3)n1)CN(Cc1cc(C)no1)CC2 | 10.8%
CCC(C(=O)NC1CCCC1)n1ccc2ncccc2c1=O (configuration not stated) | -16.4%
Cc1nc(N2CCN3CCCCC3C2)nc2cc(S(C)(=O)=O)ccc12 (configuration not stated) | 0.525%
NC(=O)CN1CCC(C(=O)NCCn2cc(Cl)cn2)CC1 | 3.62%

Structure (SMILES) | cytotoxicity at 70.5 h
COCCNC(=O)c1cc(COc2cncc(Cl)c2)on1 | -3.27%
Cc1cc(C(=O)N2CCCC3(CNC(=O)O3)C2)c2c(C)nn(C)c2n1 (configuration not stated) | -5.33%
COc1nccnc1-c1cccc(-c2ccn(CC3COCCO3)n2)c1 (configuration not stated) | -6.47%
CCn1c(N)nc2cc(C(=O)N3CCN(c4ccncc4)CC3)cnc21 | -2.2%
O=C1N(CCO)CCCC12CCN(Cc1noc(C3CCCC3)n1)C2 (configuration not stated) | 5.43%
O=C(Nc1ccccc1OCc1ccccn1)NC1CCOCC1 | -8.37%
CN(Cc1noc2c1CCCC2)C(=O)CN1C(=O)CSc2ccccc21 | 3.41%
COc1cccc(-c2ncc(CN3C[C@@H]4CC[C@H](C3)N(C)C4=O)s2)c1 | -0.692%
Cc1nccn1CCC1CCN(C(=O)C2CC3(CCNCC3)CN2)CC1 (configuration not stated) | -8.48%
CCC(=O)N1CCCC(C(=O)N2CCN(c3cnn(C)c(=O)c3)CC2)C1 (configuration not stated) | -12.7%
Cc1ncnc(NCCCN2CCCCC2CO)c1C (configuration not stated) | -1.1%
O=C(O)COc1ccc(CN2CCCC(CCc3ccccc3)C2)cc1 (configuration not stated) | 20.1%
Cn1ncnc1-c1ccnc(NCCCc2ccncc2)n1 | -17.5%
Cc1nc(O)cc(CN2CC=C(c3cnn(-c4ccccc4)c3)CC2)n1 | 14.1%
CC(C)OC(=O)N1C[C@H]2CC[C@@H]1CN(C(=O)c1ccccn1)C2 | 10.5%
COc1cc(Oc2ncccc2C(F)(F)F)ccc1CN1CCCC1 | 4.5%
CCc1cnc(N)nc1NCc1ccc(OC)cc1OC | -0.135%
CC(C)SCC(=O)N1Cc2cnc(-c3ccccc3)nc2C1 | -7.54%
COc1cccc(C2CCCN2C(=O)CC2=CSC3=NCCCN23)c1 (configuration not stated) | -12%
CCC(C)N(Cc1cccnc1)C(=O)c1ncccc1O (configuration not stated) | -8.41%
CCCn1ncnc1C(C)NC(=O)C1CCN(C(C)C)CC1 (configuration not stated) | -4.07%

Structure (SMILES) | cytotoxicity at 70.5 h
COCc1nc(N2CC[C@H](N(C)C)C2)c2cnn(C)c2n1 | -10%
Cc1nc(C(C)C)sc1C(=O)N1CCN(C2CCSCC2)CC1 | 9.03%
Cc1ccc(-c2ccnc(NC(C)c3ncc[nH]3)n2)c(C)n1 (configuration not stated) | -10.5%
COc1cccc([C@H]2CN(CCCS(=O)(=O)N(C)C)C[C@@H]2N)c1 | -3.42%
CCN1CCC(CC(=O)NCc2nc(C)cc(C)n2)CC1 | -3.98%
O=C(COCC(F)(F)C(F)F)N1CCC2(CCCN(CCO)C2=O)C1 (configuration not stated) | -2.98%
Cc1ccc(O)c(-c2cc(NCCO)nc3[nH]ccc23)c1 | -4.62%
O=C(O)c1ccnc(-c2ccnc(COc3cccc(F)c3)n2)c1 | 16.7%
Cc1nn(C)c2ncnc(N(C)CC3CCN(CC(C)C)C3)c12 (configuration not stated) | -2.77%
CC(=O)N1CCN(Cc2c(C)sc3ccccc23)CC(O)C1 (configuration not stated) | -3.67%
COc1cccc(CC(=O)N2CCC3(CC2)OCCCC3O)c1OC (configuration not stated) | -7.1%
Cc1cc(=O)n(CC(=O)Nc2cccc(Cl)c2)nc1C | 21.6%
CCN(CCO)C(=O)C1CCC(=O)N(CCc2cccc(F)c2)C1 (configuration not stated) | -1.58%
CCCS(=O)(=O)N1CCN(c2cc(-n3cnc(C)c3C)ncn2)CC1 | 2.79%
CC(COc1ccccc1)NS(C)(=O)=O (configuration not stated) | -1.8%
CCC(NC1CCCC1)c1ccc(S(C)(=O)=O)cc1 (configuration not stated) | -12.8%
O=C(COCC1CCCO1)N1CCCN(Cc2ccccc2F)CC1 (configuration not stated) | -5.89%
COc1ccc2c(C(=O)N(C)C)cc(-c3cnc(N)nc3)nc2c1 | -3.44%
Cc1nnc(CCNC(=O)c2coc(CN3CCOCC3)c2)s1 | 1.37%
CCC(NS(C)(=O)=O)c1ccccc1C (configuration not stated) | 10.1%
CN(CC1Cc2ccccc2CN1C)c1nc(N)nc2c1CCNCC2 (configuration not stated) | -9.32%

Structure (SMILES) | cytotoxicity at 70.5 h
CN1CC2(CCCN(Cc3cccc(Oc4ccccc4)c3)C2)OC1=O (configuration not stated) | 24.6%
O=S1(=O)CCC(n2cc(C3=CCN(CCc4ccccc4)CC3)cn2)C1 (configuration not stated) | -2.15%
CCCC(=O)N1CCN(c2cc(-n3cnc(C)c3C)nc(C)n2)CC1 | -2.01%
O=C1CC(c2ccc(F)cc2)c2cnn(C3CCCC3)c2N1 (configuration not stated) | -7.98%
CCOc1cccc(C2CC(=O)NCc3nc(N(C)C)sc32)c1 (configuration not stated) | -5.3%
COCC(=O)N1CCC(C(=O)Nc2ccc(C(C)=O)cc2)CC1 | -7.91%
COCCN1CC2(CCCN(c3ncnc4[nH]cnc34)C2)CCC1=O (configuration not stated) | -1.89%
CCC1CCCCN1S(=O)(=O)c1c(N)noc1C (configuration not stated) | -2.36%
Cc1ccc(OCC(C)NS(C)(=O)=O)cc1 (configuration not stated) | -4.31%
Cc1nc(N2CCN(S(C)(=O)=O)CC2)cc(-n2cnc(C)c2C)n1 | -3.21%
CN(Cc1ccc(-n2cncn2)cc1)Cc1ncc[nH]1 | -0.834%
CCn1c(CN(C)C)nnc1C1CCN(Cc2cccc(C#N)c2)CC1 | -5.02%
CCC(C(=O)NCc1cc(N2CCOCC2)ncn1)n1cccn1 (configuration not stated) | -1.38%
Cn1cc(CN(Cc2cccc(-n3cccn3)c2)C2CC2)cn1 | 43.4%
Cc1cc(C)nc(N2CCC(NCCSc3nnnn3C)CC2)n1 | 11.2%
Cc1ccc(C(C(=O)NCc2cc(C)[nH]n2)N(C)C)cc1 (configuration not stated) | -8.58%
CCc1ncc(C(=O)N2CCN(c3cnn(C)c(=O)c3)CC2)cn1 | -5.02%
Cc1cnc(C)c(N2CCN(Cc3ccc(C)c(C)c3)CC2)n1 | 3.81%
CCN(CC)C(=O)[C@@H]1C[C@@H](n2cc(-c3cccc(OC)c3)nn2)CN1 | -15.1%
